Results published in US20030006516A1, “Optical data storage medium containing a heterocyclic azo dye as the light-absorbing compound in the information layer” (priority 2001, published 2003).

Tests used:
Assay type in all cases: physicochemical
[1] = Absorption spectrum measured in solution (λmax, ε, slope width, solvatochromism)
Procedure: For a recordable optical data storage medium according to the invention which is recorded on and read using light from a blue laser, such heterocyclic azo dyes are preferred whose absorption maximum λmax2 is in the range from 420 to 550 nm, […] half the extinction value at λmax2, and the wavelength λ1/10, at which the extinction on the short-wavelength slope of the absorption maximum of the wavelength λmax2 is a tenth of the extinction value at λmax2, are preferably in each case no further than 80 nm away from each other.
For a recordable optical data storage medium according to the invention which is recorded on and read using light from a red laser, such heterocyclic azo dyes are preferred whose absorption maximum λmax2 is in the range from 500 to 650 nm, wherein the wavelength λ1/2 at which the extinction on the long-wavelength slope of the absorption maximum of the wavelength λmax2 is half the extinction value at λmax2, and the wavelength λ1/10, at which the extinction on the long-wavelength slope of the absorption maximum of the wavelength λmax2 is a tenth of the extinction value at λmax2, are preferably in each case no further than 60 nm away from each other.
At the absorption maximum λmax2 the heterocyclic azo dyes preferably have a molar extinction coefficient E of >25000 l/mol cm, preferably >35000 l/mol cm, particularly preferably >40000 l/mol cm and very particularly preferably >50000 l/mol cm.
The absorption spectra are, for example, measured in solution.
Suitable heterocyclic azo dyes having the required spectral properties are in particular those in which the change in the dipole moment Δμ=|μg−μag|, i.e. the positive difference between the dipole moments in the ground state and the first excited state is as small as possible, i.e. preferably <5 D, and particularly preferably <2 D. One method of determining such a change in the dipole moment Δμ is described for example in F. Würthner et al., Angew. Chem. 1997, 109, 2933 and in the literature cited therein. Low solvatochromism (dioxan/DMF) is also a suitable criterion for selection. Preferred heterocyclic azo dyes are those whose solvatochromism Δλ=|λDMFλdioxan|, i.e. the positive difference between the absorption wavelengths in the solvents dimethyl formamide and dioxan is <20 nm, particularly preferably <10 nm, and very particularly preferably <5 nm.

[2] = Solubility in TFP (2,2,3,3-tetrafluoropropanol)
Description: Solubility: >2% in TFP (2,2,3,3-tetrafluoropropanol)

[3] = Film formation (morphology of the dye layer)
Description: In addition to the abovementioned optical properties, the recordable information layer consisting of light-absorbing organic substances must have a morphology which is as amorphous as possible, in order to keep the noise signal during recording or reading as small as possible. For this purpose it is particularly preferable, when applying the substances by spin-coating from a solution or by vapour deposition and/or sublimation, to prevent crystallization of the light-absorbing substances during the subsequent top-coating with metallic or dielectric layers in vacuo.

λ1/2-λ1/10 (long-wave slope) ([1]; Example 1, long-wave slope): 22 nm
ε ([1]; Example 1, molar extinction coefficient at λmax): 44140 L/mol/cm
λmax ([1]; Example 1, solvent not given): 496 nm
Δλ=|λDMF−λdioxan| ([1]; solvatochromism DMF vs dioxan): 2 nm
Solubility [2]: > 2%
film [3]: a glassy film
SMILES: CC(C)N(c1nnc(/N=N/c2cnc(N(C)C)s2)s1)C(C)C [Example 1]
